# Source: US20240148740A1, “COMBINATION OF AN AHR INHIBITOR WITH A PDX INHIBITOR OR DOXORUBICINE” (Ikena Oncology, Inc., priority 2020, published 2024)
# Entries after “also recorded” stand apart in the source; their conditions may differ. Read-outs that look alike come from different tables or passages of the source.
# Legend:
# AHR [1] = biological target: T1, AHR (Homo sapiens, UniProt P35869); experiment: Selectivity for AHR over other receptors, transporters, and kinases
# T1 sequence (P35869 11-848): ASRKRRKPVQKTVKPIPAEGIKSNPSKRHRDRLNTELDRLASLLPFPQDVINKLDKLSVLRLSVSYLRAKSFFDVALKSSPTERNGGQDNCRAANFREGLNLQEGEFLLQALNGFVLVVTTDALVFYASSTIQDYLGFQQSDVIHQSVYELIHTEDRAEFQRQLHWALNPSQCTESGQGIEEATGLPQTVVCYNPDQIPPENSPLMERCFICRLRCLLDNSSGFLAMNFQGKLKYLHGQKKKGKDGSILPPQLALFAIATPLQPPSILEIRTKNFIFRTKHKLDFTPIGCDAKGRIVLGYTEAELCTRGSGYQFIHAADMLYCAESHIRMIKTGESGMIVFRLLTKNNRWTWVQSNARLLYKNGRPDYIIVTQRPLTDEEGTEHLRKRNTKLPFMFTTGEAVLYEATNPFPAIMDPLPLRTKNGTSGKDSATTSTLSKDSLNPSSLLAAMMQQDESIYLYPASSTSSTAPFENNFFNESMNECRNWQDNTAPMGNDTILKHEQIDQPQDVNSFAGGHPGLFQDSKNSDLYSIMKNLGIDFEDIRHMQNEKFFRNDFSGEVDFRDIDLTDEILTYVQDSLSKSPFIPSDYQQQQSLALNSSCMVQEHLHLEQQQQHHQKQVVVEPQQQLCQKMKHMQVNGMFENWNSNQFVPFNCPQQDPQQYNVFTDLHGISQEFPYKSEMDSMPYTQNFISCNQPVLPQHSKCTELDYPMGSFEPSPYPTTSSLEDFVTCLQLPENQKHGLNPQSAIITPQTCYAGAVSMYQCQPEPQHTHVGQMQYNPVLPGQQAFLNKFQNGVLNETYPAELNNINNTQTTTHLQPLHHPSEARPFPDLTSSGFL
# AHR [2] = biological target: AHR (Macaca fascicularis, UniProt A0A7N9CQA9); experiment: AHR-dependent gene expression in cynomolgus PBMCs (Quantigene Plex); type: cell-based, cynomolgus macaque; details: cynomolgus PBMCs ex vivo
# Description: The effect of Compound A on AHR-dependent gene expression was assessed in peripheral blood mononuclear cells (PBMCs) of cynomolgus macaque monkeys to assess activity in the non-rodent tox species. Cynomolgus PBMCs were treated ex vivo with Compound A and gene expression of AHR-dependent genes CYP1B1 and AHR was quantified using Quantigene Plex (QGP) custom panels.
# [3] = Levels of doxorubicin in plasma (UPLC); type: in vivo, mouse; details: day 28 after cell inoculation; FIG. 7
# Description: To analyze the levels of doxorubicin in plasma, blood was collected using retro-orbital vein bleeding. Plasma was generated after centrifuging blood in dipotassium EDTA tubes for 10 min at 4° C. Plasma was transferred in new tubes and stored at −80° C.
# Doxorubicin levels in plasma were analyzed by UPLC.
# To determine whether Compound A treatment had any effects on doxorubicin metabolism, the levels of doxorubicin in plasma were analyzed on day 28 after cell inoculation.
# [4] = Nonclinical safety: single-dose and repeated-dose toxicological studies; type: in vivo, rodent and non-rodent species; details: species not specified
# [5] = Nonclinical safety studies in rat (incl. 28-day GLP); type: in vivo
# [6] = Nonclinical safety studies in monkeys (incl. 28-day GLP); type: in vivo, monkey
# [7] = Phase 1 study, safety of single agent dose escalation; type: in vivo; details: 200 mg, 400 mg, 800 mg, and 1200 mg QD, monotherapy, human patients
# Text: This is a first-in-human (FIH), open-label, multicenter, dose-escalation and expansion study to evaluate the safety, tolerability, PK, pharmacodynamics, and preliminary antitumor activity of Compound A administered orally (PO). There will be two arms: a single agent Compound A arm and a combination arm of Compound A with nivolumab in patients with advanced solid tumors and urothelial carcinoma. The Safety Review Committee (SRC) comprised of the enrolling study Investigators and the Sponsor will use the mTPI-2 design (Guo, 2017) and assess all safety data available to guide dose escalation and de-escalation decisions and subject enrollment for both arms. To assess evidence of preliminary antitumor activity in patients with urothelial carcinoma, a Simon 2-stage design (Simon, 1989) is used for both arms.
# A baseline Screening period is followed by a by a Single-dose Run-in period (up to 7 days) to assess the PK of Compound A without food. The Single Agent treatment arm comprises daily oral administration of Compound A in the fed state. […]
# Toxicity is evaluated according to National Cancer Institute Common Terminology Criteria for Adverse Events (AEs) (NCI-CTCAE) v5.0. […]
# Sequence of AHR (Macaca fascicularis, UniProt A0A7N9CQA9) (A0A7N9CQA9 entry or part of it): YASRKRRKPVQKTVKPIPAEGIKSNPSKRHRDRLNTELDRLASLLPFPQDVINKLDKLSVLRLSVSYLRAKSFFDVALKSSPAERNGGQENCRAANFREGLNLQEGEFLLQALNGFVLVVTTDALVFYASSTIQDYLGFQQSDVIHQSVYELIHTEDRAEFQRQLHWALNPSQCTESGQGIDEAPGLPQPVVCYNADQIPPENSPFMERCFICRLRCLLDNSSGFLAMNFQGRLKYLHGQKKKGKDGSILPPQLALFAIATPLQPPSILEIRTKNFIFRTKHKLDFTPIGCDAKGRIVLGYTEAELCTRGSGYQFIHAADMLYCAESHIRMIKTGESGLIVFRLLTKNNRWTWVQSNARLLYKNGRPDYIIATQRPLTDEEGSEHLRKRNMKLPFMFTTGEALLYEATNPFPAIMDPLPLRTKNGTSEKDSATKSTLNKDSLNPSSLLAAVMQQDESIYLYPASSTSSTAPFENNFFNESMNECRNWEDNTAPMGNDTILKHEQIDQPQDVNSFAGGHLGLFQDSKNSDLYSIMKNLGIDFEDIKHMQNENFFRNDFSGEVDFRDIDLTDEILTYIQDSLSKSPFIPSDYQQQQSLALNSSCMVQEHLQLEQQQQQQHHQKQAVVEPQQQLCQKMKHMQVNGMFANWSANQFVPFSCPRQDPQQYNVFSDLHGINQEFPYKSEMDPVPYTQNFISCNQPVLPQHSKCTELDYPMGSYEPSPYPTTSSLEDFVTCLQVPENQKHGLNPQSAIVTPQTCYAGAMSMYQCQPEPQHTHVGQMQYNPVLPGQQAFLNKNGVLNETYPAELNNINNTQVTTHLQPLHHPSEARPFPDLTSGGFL
smiles,measurement,setting,value
"CC(C)c1cnn2c(N[C@@H]3CCc4[nH]c5ccccc5c4C3)nc(-c3cncc(F)c3)nc12 [Compound A, (R)—N-(2-(5-fluoropyridin-3-yl)-8-isopropylpyrazolo[1,5-a][1,3,5]triazin-4-yl)-2,3,4,9-tetrahydro-1H-carbazol-3-amine]","selectivity for AHR over other receptors, transporters, and kinases",AHR [1],highly selective
same,IC50,"AHR [2]; read-out: IC50, inhibition of AHR target gene AHR",30 nM
same,IC50,"AHR [2]; read-out: IC50, inhibition of AHR target gene Cyp1B1",6 nM
same,effect of Compound A treatment on doxorubicin drug levels in plasma / metabolism of Doxil,[3],does not affect; also recorded: did not have any effect
same,noteworthy findings,[4],"emesis, loose stool, dehydration, body weight loss"
same,noteworthy findings (rats),[5],non-glandular stomach ulceration and edema; also recorded: seminiferous tubule degeneration and debris in the epididymis lumen
same,noteworthy findings (monkey),[6]; monkey,decreased thymus weights and cortical lymphocytes
same,QTc prolongation,[6]; monkeys,up to 11%
same,serious adverse events (SAEs),[7],no serious adverse events; also recorded: without any drug-related serious adverse events
